# Data from patent US20080242681A1, “N-4-(6-(Hetero)Aryl-Pyrimidin-4-Ylaminophenyl)-Benzenesulfonamides as Kinase Inhibitors” (Altana Pharma AG, priority 2004, published 2008).
# Where a name gives a salt, the structure may show the parent alone.
# What was measured:
# [1] = biological target: T1, Rsk1 (Homo sapiens, UniProt Q15418); assay: Rsk1 KinaseProfiler assay (Upstate); type: biochemical; conditions: human recombinant Rsk, externally tested (IC50Profiler, Upstate), 10 μM ATP; read-out: IC50, inhibition of Rsk1
# T1 construct: purchased Upstate ltd, Dundee, UK (external KinaseProfiler service)
# T1 sequence (Q15418 whole entry): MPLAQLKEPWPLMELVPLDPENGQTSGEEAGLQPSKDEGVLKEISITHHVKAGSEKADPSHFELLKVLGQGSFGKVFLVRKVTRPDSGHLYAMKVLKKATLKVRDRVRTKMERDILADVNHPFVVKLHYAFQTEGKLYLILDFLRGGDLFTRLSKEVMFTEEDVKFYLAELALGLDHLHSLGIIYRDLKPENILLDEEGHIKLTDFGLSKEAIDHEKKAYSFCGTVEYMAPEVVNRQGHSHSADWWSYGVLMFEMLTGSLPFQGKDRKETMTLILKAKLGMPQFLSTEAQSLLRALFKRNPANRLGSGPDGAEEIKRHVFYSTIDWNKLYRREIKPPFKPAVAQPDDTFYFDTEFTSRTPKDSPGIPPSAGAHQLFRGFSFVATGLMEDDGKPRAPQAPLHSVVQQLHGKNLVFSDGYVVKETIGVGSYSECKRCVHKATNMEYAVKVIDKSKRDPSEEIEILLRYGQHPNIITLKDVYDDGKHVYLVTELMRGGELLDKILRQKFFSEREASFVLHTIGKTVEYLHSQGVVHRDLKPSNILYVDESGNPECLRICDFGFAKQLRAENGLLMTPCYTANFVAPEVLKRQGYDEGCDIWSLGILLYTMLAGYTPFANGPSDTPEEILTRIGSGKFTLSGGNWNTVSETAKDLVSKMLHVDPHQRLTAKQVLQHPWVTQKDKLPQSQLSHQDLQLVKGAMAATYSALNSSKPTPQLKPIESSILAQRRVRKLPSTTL
# Method: To investigate the effect of a test compound on p90 ribosomal S6 kinase (Rsk) family, the compounds are externally tested in KinaseProfiler assay (Upstate ltd, Dundee, UK) described in product guide brochure. In brief, in a final reaction volume of 25 μl, 5-10 mU of human recombinant Rsk are incubated with 8 mM MOPS pH 7.0, 0.2 mM EDTA, 30 μM KKKNRTLSVA, 10 mM MgAcetate and 10 μM [γ-33P-ATP]. The reaction is initiated by addition of the MgATP mix. After incubation for 40 minutes at RT, the reaction is stopped by the addition of 5 μl of a 3% phosphoric acid solution. 10 μl of the reaction is then spotted onto P30 filtermat and washed three times for 5 minutes in 75 mM phosphoric acid and once in methanol prior to drying and scintillation counting. The IC50 value is estimated by preparing a 10 point curve using a ½ log dilution series (IC50Profiler, Upstate). The examples 129, 431 and 173 inhibit Rsk1 in this assay with an IC50<1 μM.
# [2] = biological target: T2, PKCι (Homo sapiens, UniProt P41743); assay: Protein Kinase C ι assay (SPA); type: biochemical; conditions: human recombinant PKCι from Sf21 insect cells, absence of PMA and phosphatidylserine, read-out: IC50, inhibition of PKC ι
# T2 construct: made in house; host or cells: Sf21 insect cells
# T2 sequence (P41743 1-596): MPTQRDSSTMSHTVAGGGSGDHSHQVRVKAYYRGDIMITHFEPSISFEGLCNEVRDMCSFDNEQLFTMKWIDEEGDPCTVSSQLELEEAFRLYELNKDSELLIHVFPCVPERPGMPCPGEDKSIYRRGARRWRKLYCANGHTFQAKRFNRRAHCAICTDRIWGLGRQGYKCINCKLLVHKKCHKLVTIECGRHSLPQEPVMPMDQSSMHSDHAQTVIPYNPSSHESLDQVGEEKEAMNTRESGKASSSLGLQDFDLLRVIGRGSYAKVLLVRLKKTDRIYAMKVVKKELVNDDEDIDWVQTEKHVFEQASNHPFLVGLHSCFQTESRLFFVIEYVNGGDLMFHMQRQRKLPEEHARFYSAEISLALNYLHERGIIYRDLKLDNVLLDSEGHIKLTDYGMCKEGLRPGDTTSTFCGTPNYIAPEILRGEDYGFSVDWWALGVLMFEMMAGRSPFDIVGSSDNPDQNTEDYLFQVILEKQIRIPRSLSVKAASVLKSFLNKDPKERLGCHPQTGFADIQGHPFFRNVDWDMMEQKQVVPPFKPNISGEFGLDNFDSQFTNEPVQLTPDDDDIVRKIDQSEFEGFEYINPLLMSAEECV
# Method: (§1) The compounds of formula 1 are tested for their activity on different protein kinases and PKC isoforms using a scintillation proximity assay (SPA, Amersham International plc). ^33P-labeled peptides are captured onto streptavidin coated yttrium silicate SPA beads. β-particles, emitted from the captured ^33P-labeled substrate in close proximity to the bead are able to excite the scintillant, resulting in the generation of quantifiable light. The assay is performed in a 96-well polystyrene microtiterplate (1450-514, Isoplates, Wallac, Turku, Finland). The reaction mixture (50 μl) contains 10 μl of the test compound together with 10 μl of the relevant kinase, diluted in the relevant dilution buffer, 5 μl of 10 μM phorbol myristate acetate (PMA) in H2O, 5 μl of 1.6 mM phosphatidylserine (Sigma-Aldrich Chemie GmbH, Stein-heim, Germany) in 20 mM Tris/HCL buffer pH 7.4, 5 μl of 0.3% BSA in H2O, 5 μl of 30 μM relevant substrate and 10 μl of 5 μM ATP and 0.1 μCi of ^33P-ATP (Amersham, Freiburg, Germany) in 200 mM Tris/HCL pH 7.5 and 200 mM MgCl2. Incubation is performed for 40 min at room temperature (RT) without shaking. Reaction is stopped by adding 150 μl of cold stop solution containing 10 mM ATP, 5 mM EGTA pH 7.5, 0.1% Triton X-100 and 0.2 mg streptavidin coated yttrium silicate SPA beads (Amersham, RPNQ 0012). The sealed plate is incubated for 60 min at RT. Thereafter the MTP is counted in a Microbeta Jet (Wallac). IC50 measurement is performed on a routine basis by incubation a serial dilution of inhibitor at concentrations ranging between 0.01 and 100 μM according to the method described above. Background values are the signals of the reaction mixture without addition of the relevant kinase and are subtracted from all values. 100% values are the signals of the reaction mixture without addition of inhibitors.
# Dependent on the efficacy of the inhibitors In the various test systems, corresponding IC50 values are calculated from concentration-inhibition curves by nonlinear regression analysis using the program GraphPad Prism (GraphPad Software Inc., San Diego, Calif.). […]
# [3] = biological target: T3, PKCβ1 (Homo sapiens, UniProt P05771); assay: Protein Kinase Cβ1 assay (SPA); type: biochemical; conditions: human recombinant PKCβ1, SPA, biotinylated PKCα pseudosubstrate, 0.5 mM CaCl2; read-out: IC50, inhibition of PKC β1
# T3 construct: purchased Panvera
# T3 sequence (P05771 whole entry): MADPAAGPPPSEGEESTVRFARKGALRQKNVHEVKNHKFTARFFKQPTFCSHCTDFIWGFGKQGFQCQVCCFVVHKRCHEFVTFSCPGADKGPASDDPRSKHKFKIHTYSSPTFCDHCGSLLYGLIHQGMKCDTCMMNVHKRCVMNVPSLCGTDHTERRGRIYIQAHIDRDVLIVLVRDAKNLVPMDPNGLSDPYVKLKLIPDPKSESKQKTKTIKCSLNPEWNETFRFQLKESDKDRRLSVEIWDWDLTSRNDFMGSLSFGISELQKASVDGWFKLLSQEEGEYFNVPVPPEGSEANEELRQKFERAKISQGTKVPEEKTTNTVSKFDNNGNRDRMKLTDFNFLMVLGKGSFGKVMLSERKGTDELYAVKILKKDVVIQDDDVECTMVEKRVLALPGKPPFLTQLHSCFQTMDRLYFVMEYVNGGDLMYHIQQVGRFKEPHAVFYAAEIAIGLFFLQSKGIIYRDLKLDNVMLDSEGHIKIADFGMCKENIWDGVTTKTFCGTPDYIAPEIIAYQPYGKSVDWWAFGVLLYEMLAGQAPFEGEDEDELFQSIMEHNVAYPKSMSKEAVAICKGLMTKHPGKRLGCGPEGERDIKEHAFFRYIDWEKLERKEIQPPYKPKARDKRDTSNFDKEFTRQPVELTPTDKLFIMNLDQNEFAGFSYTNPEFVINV
# Method: as §1
# Dependent on the efficacy of the inhibitors In the various test systems, corresponding IC50 values are calculated from concentration-inhibition curves by nonlinear regression analysis using the program GraphPad Prism (GraphPad Software Inc., San Diego, Calif.).
# Human recombinant PKCβ1 was obtained from Panvera and is used under the assay conditions as described above (Section A.1). The enzyme is diluted in PKC dilution buffer containing 1 mM Hepes pH 7.4, 0.5 mM DTT and 0.001% Triton X-100. The assay additionally contains 0.5 mM CaCl2. The kinase reaction is performed with the biotinylated PKCα pseudosubstrate solved in H2O. The examples 29, 45, 52, 128 and 139 inhibit PKC β1 in this assay with an IC50 between 2 and 40 μM.
# [4] = biological target: T4, Lck (Homo sapiens, UniProt P06239); assay: Lck (p56Lck) assay (SPA); type: biochemical; conditions: human recombinant Lck, read-out: IC50, inhibition of Lck
# T4 construct: purchased Upstate (Dundee, UK)
# T4 sequence (P06239 whole entry): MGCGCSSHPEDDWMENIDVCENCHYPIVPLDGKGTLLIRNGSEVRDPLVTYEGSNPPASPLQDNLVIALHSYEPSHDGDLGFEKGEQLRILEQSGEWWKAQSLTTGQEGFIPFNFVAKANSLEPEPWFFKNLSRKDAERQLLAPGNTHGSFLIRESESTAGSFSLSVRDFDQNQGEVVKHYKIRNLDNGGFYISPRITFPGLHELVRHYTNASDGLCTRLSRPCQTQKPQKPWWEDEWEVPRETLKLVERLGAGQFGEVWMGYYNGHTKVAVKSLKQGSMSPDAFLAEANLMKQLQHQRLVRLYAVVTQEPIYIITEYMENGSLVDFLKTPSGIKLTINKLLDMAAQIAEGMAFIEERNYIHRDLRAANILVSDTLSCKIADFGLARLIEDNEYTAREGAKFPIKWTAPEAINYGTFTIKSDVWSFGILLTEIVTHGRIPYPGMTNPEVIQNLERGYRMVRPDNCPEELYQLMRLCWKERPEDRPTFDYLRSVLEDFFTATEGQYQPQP
# Method: The compounds of formula 1 are tested for their activity on different protein kinases and PKC isoforms using a scintillation proximity assay (SPA, Amersham International plc). ^33P-labeled peptides are captured onto streptavidin coated yttrium silicate SPA beads. β-particles, emitted from the captured ^33P-labeled substrate in close proximity to the bead are able to excite the scintillant, resulting in the generation of quantifiable light. The assay is performed in a 96-well polystyrene microtiterplate (1450-514, Isoplates, Wallac, Turku, Finland). The reaction mixture (50 μl) contains 10 μl of the test compound together with 10 μl of the relevant kinase, diluted in the relevant dilution buffer, 5 μl of 10 μM phorbol myristate acetate (PMA) in H2O, 5 μl of 1.6 mM phosphatidylserine (Sigma-Aldrich Chemie GmbH, Stein-heim, Germany) in 20 mM Tris/HCL buffer pH 7.4, 5 μl of 0.3% BSA in H2O, 5 μl of 30 μM relevant substrate and 10 μl of 5 μM ATP and 0.1 μCi of ^33P-ATP (Amersham, Freiburg, Germany) in 200 mM Tris/HCL pH 7.5 and 200 mM MgCl2. […] Thereafter the MTP is counted in a Microbeta Jet (Wallac). […]
# Human recombinant Lck was obtained from Upstate (Dundee, UK) and is used in a scintillation proximity assay described in Section A.1. […] Thereafter the MTP is counted in a Microbeta Jet (Wallac). […] IC50 values are calculated from the graph by sigmoidal curve fitting. […]
# [5] = system: responder T cells; assay: Mixed lymphocyte reaction (MLR), T cell proliferation; type: cell-based; conditions: [3H]thymidine incorporation after 48 h, read-out: IC50, inhibition of MLR-mediated T-cell proliferation
# Method: For MLR cultures 4×10^5 responder T cells are incubated in duplicates with 2×10^5 mitomycin C-treated allogeneic stimulator T cells in a total volume of 200 μl RPMI 1640 medium supplemented with 10% FCS, 2 mM L-glutamine, 100 U/ml penicillin and 100 μg/ml streptomycin (Gibco Life Technologies) in 96 well tissue culture plates (655180, flat bottom, Greiner). Cells are maintained at 37° C. in a humidified atmosphere of 5% CO2. After 48 h of growth, cells are pulsed with 1 μCi [^3H]thymidine and incorporation of [^3H]thymidine is measured with a Topcount radioactive counter (Packard). To investigate the effect of a test compound on MLR-mediated T cell proliferation six three-fold dilution steps in duplicates per test compound are performed (final DMSO concentration 0.1%). Low control values are the proliferation of responder cells alone; high controls are from mixed lymphocyte cells without any test samples. Low controls are subtracted from all values. The inhibition obtained in the presence of a test compound is calculated as percent Inhibition of the high control. The concentration of test compounds resulting in 50% inhibition (IC50) is determined from the dose-response curves. The examples 91, 128, 133 and 137 inhibit MLR-mediated T-cell proliferation in this assay with an IC50<1 μM.
IC50 [1],IC50 [2],IC50 [3],IC50 [4],SMILES,IC50 [5]
< 1000 nM,,,,"CN(C)CCCn1ccc2cc(-c3cc(Nc4ccc(NS(=O)(=O)c5ccccc5F)cc4)ncn3)ccc21 [Example 129, N-(4-{6-[1-(3-Dimethylamino-propyl)-1H-indol-5-yl]-pyrimidin-4-ylamino}-phenyl)-2-fluorobenzenesulfonamide]",
< 1000 nM,7000 to 34000 nM,,,"CCN(CC)CCCn1cc(-c2cc(Nc3ccc(NS(=O)(=O)c4c(F)cccc4F)cc3)ncn2)c2ccccc21 [Example 173, N-(4-{6-[1-(3-Diethylamino-propyl)-1H-indol-3-yl]-pyrimidin-4-ylamino}-phenyl)-2,6-difluoro-benzenesulfonamide formic acid salt]",
,,2000 to 40000 nM,< 3000 nM,"CN(C)CCCn1ccc2cc(-c3cc(Nc4ccc(NS(=O)(=O)c5c(F)cccc5F)cc4)ncn3)ccc21 [Example 128, N-(4-{6-[1-(3-Dimethylamino-propyl)-1H-indol-5-yl]-pyrimidin-4-ylamino}-phenyl)-2,6-difluoro-benzenesulfonamide]",< 1000 nM
